The nature of series [1]: Cytotoxicity against human HeLa Ohio cells assessed as maximum non-toxic dose after 24 hrs by neutral red staining. The class given is cell-based. Particulars: read-out: Activity.
For series [2], the system named is Human immunodeficiency virus 1. The series can be described thus: Antiviral activity against HIV1 3B replication in human C8166 cells at 20 ug/ml after 5 to 7 days by MTT-formazan method. The format is functional.
Series [3] deals with Human immunodeficiency virus type 1 reverse transcriptase (Human immunodeficiency virus 1) (UniProt Q72547). The series can be described thus: Inhibition of HIV1 reverse transcriptase assessed as [3H]dTTP incorporation up to 50 ug/ml by liquid scintillation counting.
The nature of series [4]: Cytotoxicity against human C8166 cells after 5 to 7 days by MTT-formazan method. The class given is cell-based. Particulars: read-out: TC50 (the source's name).
Series [5] concerns rhinovirus A1B. The series can be described thus: Antiviral activity against HRV1B replication in human Hela Ohio cells assessed as virus-induced cytopathic effect at 50 ug/ml after 24 hrs at 33 degC by light microscopy. The class given is functional, Human rhinovirus 1B. For orientation: Cytopathic effects are the visible damage that an infection or toxin causes in cultured cells.

The nature of series [6]: Cytotoxicity against human HeLaS3 cells assessed as maximum non-toxic dose after 24 hrs by neutral red staining. The class given is cell-based, HeLa S3. Particulars: read-out: Activity.
Series [7] has as its system Sindbis virus. The series can be described thus: Antiviral activity against Sindbis virus replication in human HelaS3 cells assessed as virus-induced cytopathic effect at 20 ug/ml after 24 hrs at 37 degC by light microscopy. The class given is functional.
Series [8] concerns Human immunodeficiency virus 1. The series can be described thus: Antiviral activity against HIV1 3B replication in human C8166 cells at 100 ug/ml after 5 to 7 days by MTT-formazan method. The format is functional.
For series [9], the system named is Human immunodeficiency virus 1. The series can be described thus: Antiviral activity against HIV1 3B replication in human C8166 cells at 4 ug/ml after 5 to 7 days by MTT-formazan method. The class given is functional. A general note: Formazan colour is commonly taken as a measure of viable cells.
For series [10], the system named is Human immunodeficiency virus 1. The series can be described thus: Antiviral activity against HIV1 3B replication in human C8166 cells at 0.8 ug/ml after 5 to 7 days by MTT-formazan method. The format is functional.
Series [11] has as its system rhinovirus A1B. The series can be described thus: Antiviral activity against HRV1B replication in human Hela Ohio cells assessed as virus-induced cytopathic effect at 20 ug/ml after 24 hrs at 33 degC by light microscopy. The format is functional, Human rhinovirus 1B.
In series [12] the test system is rhinovirus A1B. The series can be described thus: Antiviral activity against HRV1B replication in human Hela Ohio cells assessed as inhibition of virus-induced cytopathic effect at 0.8 ug/ml after 24 hrs at 33 degC by light microscopy. The format is functional, organism-based. The conditions noted are these: Human rhinovirus 1B.
In series [13] the test system is Sindbis virus. The series can be described thus: Antiviral activity against Sindbis virus replication in human HelaS3 cells assessed as virus-induced cytopathic effect at 4 ug/ml after 24 hrs at 37 degC by light microscopy. The class given is functional.
Series [14] deals with rhinovirus A1B. The series can be described thus: Antiviral activity against HRV1B replication in human Hela Ohio cells assessed as inhibition of virus-induced cytopathic effect at 4 ug/ml after 24 hrs at 33 degC by light microscopy. The class given is functional, Human rhinovirus 1B. Particulars: Rhinovirus A.
The test system of series [15] is Human immunodeficiency virus 1. The series can be described thus: Antiviral activity against HIV1 3B replication in human C8166 cells at 40 ug/ml after 5 to 7 days by MTT-formazan method. The format is functional.
Series [16] has as its system Sindbis virus. The series can be described thus: Antiviral activity against Sindbis virus replication in human HelaS3 cells assessed as virus-induced cytopathic effect at 50 ug/ml after 24 hrs at 37 degC by light microscopy. The class given is functional.
In series [17] the test system is Human immunodeficiency virus 1. The series can be described thus: Antiviral activity against HIV1 3B replication in human C8166 cells at 8 ug/ml after 5 to 7 days by MTT-formazan method. The format is functional.
Series [18] has as its system Human immunodeficiency virus 1. The series can be described thus: Antiviral activity against HIV1 3B replication in human C8166 cells at 100 uM after 5 to 7 days by MTT-formazan method. The format is functional.
Series [19] has as its system Human immunodeficiency virus 1. The series can be described thus: Antiviral activity against HIV1 3B replication in human C8166 cells at 0.016 ug/ml after 5 to 7 days by MTT-formazan method. The class given is functional.

In brackets after ≈: the same amount, converted by molar mass. Activity calls are given as the source filed them. The rule behind the calls is not given here. Some results are limits rather than exact numbers.

In the case of `C[C@@H]1CC[C@]2(C(=O)O)CC[C@]3(C)C(=CC[C@@H]4[C@@]5(C)C[C@@H](O)[C@H](O)[C@@](C)(COC(=O)/C=C/c6ccc(O)cc6)[C@@H]5CC[C@]43C)[C@@H]2[C@]1(C)O`, the MNTC at 24 h was determined as 50 µg/mL in series [1] and 20 µg/mL in series [6]. Further, the Activity in series [2] was 0%; with rhinovirus A1B [5], 100%; with Sindbis virus [7] it was 100%; in series [8] it was 0%. Further, the outcome in [3] was inactive. Also, in [4], the CC50 came to 30 µg/mL (≈ 46.1 µM).
`C[C@@H]1CC[C@]2(C(=O)O)CC[C@]3(C)C(=CC[C@@H]4[C@@]5(C)CC[C@H](O)C(C)(C)[C@@H]5[C@H](O)C[C@]43C)[C@@H]2[C@]1(C)O`: the Activity in series [9] came out at 0%; in [10], 1%; in the series on Sindbis virus [7], 100%; in the series on rhinovirus A1B [11], 100%. Besides, the MNTC at 24 h in [1] and in [6] was 20 µg/mL throughout. Also, the outcome in [3] was inactive. In series [4], the CC50 amounted to 2 µg/mL (≈ 4.09 µM).
On to `C[C@@H]1CC[C@]2(C(=O)O)CC[C@]3(C)C(=CC[C@@H]4[C@@]5(C)C[C@@H](O)[C@H](OC(=O)/C=C/c6ccc(O)c(O)c6)C(C)(C)[C@@H]5CC[C@]43C)[C@@H]2[C@]1(C)O`, for which the values for the Activity (in series [9]; with Sindbis virus [13]; in the series on rhinovirus A1B [11]) were 1%, 100% and 50%, respectively. The MNTC at 24 h was 20 µg/mL in series [1] and 4 µg/mL in series [6]. In addition, the result (in series [3]; with rhinovirus A1B [12]) was inactive. Besides, the CC50 in [4] worked out at 10 µg/mL (≈ 15.4 µM). Further, the inhibition at 4 µg/mL in the series on rhinovirus A1B [14] was less than 25%.
For the compound `C[C@@H]1CC[C@]2(C(=O)O)CC[C@]3(C)C(=CC[C@@H]4[C@@]5(C)CC[C@H](OC(=O)/C=C/c6ccc(O)cc6)[C@@](C)(CO)[C@@H]5CC[C@]43C)[C@@H]2[C@]1(C)O`, the MNTC at 24 h in series [1] and in [6] was 20 µg/mL each time. Moreover, the Activity turned out to be 0% in series [2], 100% with Sindbis virus [7], 0% in series [8] and 100% in the series with rhinovirus A1B [11]. The outcome in series [3] was inactive. In series [4], the CC50 came out at 30 µg/mL (≈ 47.3 µM).
With `C[C@@H]1CC[C@]2(C(=O)O)CC[C@]3(C)C(=CC[C@@H]4[C@@]5(C)C[C@@H](O)[C@H](O)[C@@](C)(COC(=O)/C=C\c6ccc(O)cc6)[C@@H]5CC[C@]43C)[C@@H]2[C@]1(C)O`, the MNTC at 24 h in series [1] and in series [6] was 20 µg/mL each time. The Activity is reported as 0% in series [2], 100% with Sindbis virus [7], 0% in series [8] and 100% in the series with rhinovirus A1B [11]. In addition, in [3], the result was inactive. Besides, the CC50 in [4] amounted to 50 µg/mL (≈ 76.8 µM).
With `C[C@@H]1CC[C@]2(C(=O)O)CC[C@]3(C)C(=CC[C@@H]4[C@@]5(C)C[C@@H](O)[C@H](O)[C@@](C)(CO)[C@@H]5CC[C@]43C)[C@@H]2[C@]1(C)O`, the MNTC at 24 h in [1] and in series [6] was 50 µg/mL throughout. The Activity in series [15] amounted to 0%; in the series with Sindbis virus [16] it was 100%; with rhinovirus A1B [5], 100%; in series [17], 1%. The result in series [3] was inactive. Moreover, the CC50 in series [4] was 20 µg/mL (≈ 39.6 µM).
Regarding `Cc1cn([C@H]2C[C@H](N=[N+]=[N-])[C@@H](CO)O2)c(=O)[nH]c1=O` [ZIDOVUDINE], the Activity in series [18] is 100%; in series [19], 49%. Also, the CC50 in series [4] was greater than 1000 µg/mL.
With `C[C@@H]1CC[C@]2(C(=O)O)CC[C@]3(C)C(=CC[C@@H]4[C@@]5(C)C[C@@H](O)[C@@H](O)C(C)(C)[C@@H]5CC[C@]43C)[C@@H]2[C@]1(C)O` [EUSCAPHIC ACID], the MNTC at 24 h in [1] was determined as 50 µg/mL; in series [6], 20 µg/mL. In addition, the Activity was determined as 0% in series [15], 100% in the series with rhinovirus A1B [5], 1% in series [17] and 100% with Sindbis virus [7]. The outcome in series [3] was inactive. For the same compound, in series [4], the CC50 turned out to be 20 µg/mL (≈ 40.9 µM).

As usually defined, the inhibition is how much of the control response was suppressed.

For the origin of these results see ChEMBL document CHEMBL1149730, “Constituents of Eriobotrya japonica. A study of their antiviral properties” (J Nat Prod, 1992).
